In US5824521A, “Saccharide composition containing trehalulose, its preparation and uses” (Kabushiki Kaisha Hayashibara Seibutsu Kagaku Kenkyujo, priority 1996, dated 1998):
Where a name gives a salt, the structure may show the parent alone.

Key:
[1] = test system: maltose/trehalose converting enzymes; details: one mM; cited from earlier work
[2] = target: α-glucosidase from yeast (Saccharomyces cerevisiae, UniProt P53341); assay: Hydrolysis by enzyme: α-glucosidase; format: biochemical; details: into glucose and fructose
Description: (§1) To identify the substance "X", the following confirmation tests were conducted using a high purity saccharide powder containing trehalulose prepared in Experiment 8: […]

[3] = test system: dd-strain mice; assay: Acute toxicity test; format: in vivo; details: oral, 7-week-old, higher dose test impossible
Description: No mouse died up to a dose of 15 g/kg mouse by weight and a higher dose test was impossible. Thus the toxicity of the saccharide is extremely low.

[4] = target: T1, invertase from yeast (Saccharomyces cerevisiae, UniProt P00724); assay: Hydrolysis by enzyme: invertase; format: biochemical
T1 sequence (P00724 20-532): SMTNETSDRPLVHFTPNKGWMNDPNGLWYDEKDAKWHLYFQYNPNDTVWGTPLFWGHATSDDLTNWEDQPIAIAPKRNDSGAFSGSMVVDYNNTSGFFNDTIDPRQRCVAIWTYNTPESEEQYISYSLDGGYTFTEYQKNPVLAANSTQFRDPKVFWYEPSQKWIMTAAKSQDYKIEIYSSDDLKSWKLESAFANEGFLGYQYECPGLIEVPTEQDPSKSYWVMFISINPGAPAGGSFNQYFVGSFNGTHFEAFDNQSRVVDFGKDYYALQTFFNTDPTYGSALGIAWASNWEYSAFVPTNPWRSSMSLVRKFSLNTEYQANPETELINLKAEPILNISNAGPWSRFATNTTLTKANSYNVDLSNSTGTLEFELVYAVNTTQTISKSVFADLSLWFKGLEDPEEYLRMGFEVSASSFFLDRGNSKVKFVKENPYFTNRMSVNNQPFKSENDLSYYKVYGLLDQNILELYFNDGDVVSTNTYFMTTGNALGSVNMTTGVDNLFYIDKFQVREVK
Description: as §1

[5] = in vivo, po
Description: In accordance with the method as reported by H. Atsuji et al. in "Journal of Clinical Nutrition", Vol.41, No.2, pp.200-208 (1972), 30 g of the saccharide powder rich in trehalulose with a purity of 98%, d.s.b., in Experiment 8 was prepared into a 20 w/v % aqueous solution which was then orally administered to 3 healthy male volunteers, and their blood were sampled at a prescribed time interval, followed by assaying the blood sugar- and insulin-levels. As a control glucose was used.

Chain of α-glucosidase from yeast (P53341 whole entry): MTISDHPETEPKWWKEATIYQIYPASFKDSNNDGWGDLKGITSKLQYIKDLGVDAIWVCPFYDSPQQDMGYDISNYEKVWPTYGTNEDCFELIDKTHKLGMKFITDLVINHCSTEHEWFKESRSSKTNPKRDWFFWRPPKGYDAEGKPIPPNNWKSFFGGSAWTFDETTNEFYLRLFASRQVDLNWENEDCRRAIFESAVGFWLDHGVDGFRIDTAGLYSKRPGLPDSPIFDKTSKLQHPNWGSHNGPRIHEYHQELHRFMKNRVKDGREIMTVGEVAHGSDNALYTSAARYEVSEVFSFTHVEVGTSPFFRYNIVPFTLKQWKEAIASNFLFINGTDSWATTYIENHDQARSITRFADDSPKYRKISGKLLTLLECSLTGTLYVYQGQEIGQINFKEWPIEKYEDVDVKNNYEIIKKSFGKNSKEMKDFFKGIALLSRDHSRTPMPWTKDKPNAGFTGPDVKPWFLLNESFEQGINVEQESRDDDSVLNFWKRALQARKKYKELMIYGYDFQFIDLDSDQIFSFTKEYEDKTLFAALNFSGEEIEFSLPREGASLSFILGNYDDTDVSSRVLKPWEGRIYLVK

Compound: [Cu+2] [Cu^++]
- Inhibition of enzyme activity [1]: inhibited

Compound: [Hg+2] [Hg^++]
- Inhibition of enzyme activity [1]: inhibited

Compound: O=C(CO[C@H]1O[C@H](CO)[C@@H](O)[C@H](O)[C@H]1O)[C@@H](O)[C@H](O)[C@H](O)CO [Trehalulose, 1-O-α-D-glucopyranosyl-D-fructose]
- Hydrolysis by α-glucosidase from yeast [2]: Hydrolyzed
- Acute toxicity: lethal dose (no mouse died up to this dose) [3]: > 15000 mg/kg
- Hydrolysis by an invertase from yeast [4]: Not hydrolyzed
- Time of highest blood sugar-level after the administration [5]: 0.5 to 1 h
- Time of highest insulin-level after the administration [5]: 0.5 to 1 h

Compound: NC(CO)(CO)CO [Tris-HCl buffer]
- Inhibition of enzyme activity [1]: inhibited
